Test results from ChEMBL document CHEMBL3272352, “Ergoline congeners as potential inhibitors of prolactin release. 2” (1976).

The compounds below were run on Rattus norvegicus (assay: Inhibition of prolactin secretion in rat assessed as serum prolactin level at 10 ug, ip after 1 hr by radioimmunoassay relative to control).
Assay type: functional
In the case of `CC(C)[C@H]1C(=O)N2CCC[C@H]2[C@]2(O)O[C@](NC(=O)[C@@H]3C=C4c5cccc6[nH]cc(c56)C[C@H]4N(C)C3)(C(C)C)C(=O)N12` [ERGOCORNINE], the “inhibition (INH)” value is reported as 60%.

What follows are compounds tested on Rattus norvegicus (assay: Inhibition of prolactin secretion in rat assessed as serum prolactin level at 1 mg, ip after 1 hr by radioimmunoassay relative to control).
With `CN(C)C1CCc2c(ccc(O)c2O)C1` (stereo not drawn) the “inhibition (INH)” value was 68%. With `CNC1CCc2c(OC)ccc(OC)c2C1` (stereo not drawn) the “inhibition (INH)” value was 5%. In the case of `COc1ccc(OC)c2c1CCC(N)C2` (stereo not drawn), the “inhibition (INH)” value is reported as 3%. In the case of `CCN(CC)C(=O)CCN(C)CCc1cc(OC)c(C)cc1OC`, the “inhibition (INH)” value is reported as 10%. With `CN(CCCC#N)C1CCc2ccccc2C1` (stereo not drawn) the “inhibition (INH)” value was 24%. In the case of `COc1ccc(OC)c2c1CCC(N(C)C)C2.Cl` (stereo not drawn), the “inhibition (INH)” value is reported as -3%. In the case of `Br.COc1ccc(OC)c2c1CCC(N(C)CCCC#N)C2` (stereo not drawn), the “inhibition (INH)” value is reported as -4%. For `Br.NC1CCc2c(O)ccc(O)c2C1` (stereo not drawn), the “inhibition (INH)” value was -9%. `Br.CNC1CCc2c(O)ccc(O)c2C1` (stereo not drawn) was tested, and the “inhibition (INH)” value was -19%. `Br.CN(C)C1CCc2c(O)ccc(O)c2C1` (stereo not drawn) was tested, and the “inhibition (INH)” value was 25%. For `Br.CN(CCCC#N)CCc1c[nH]c2ccccc12`, the “inhibition (INH)” value was 12%. `CN1CCc2cccc3c2[C@H]1Cc1ccc(O)c(O)c1-3` [APOMORPHINE] was tested, and the “inhibition (INH)” value was 29%.
